Data reported in ChEMBL document CHEMBL5331078, “1-Benzyloxy-5-phenyltetrazole derivatives highly active against androgen receptor-dependent prostate cancer cells” (Eur J Med Chem, 2023).
Active and inactive are the calls of the source. No cut-off for these calls is given here.

What was measured:
[1] = Volume of distribution at steady state in rat at 5 mg/kg, iv measured upto 24 hrs by LC-MS/MS analysis; format: ADME, organism-based; settings: in vivo, read-out: Vdss
[2] = Metabolic stability in mouse liver microsomes assessed as intrinsic clearance incubated for 60 mins in presence of NADPH-regenerating system; format: ADME, Microsome; settings: liver microsomes, read-out: CLH
[3] = test system: CWR22R; test: Downregulation of E2F1 gene expression in human 22Rv1 cells at 1 uM measured after 24 to 36 hrs by RNA sequencing analysis; format: functional, cell-based; settings: time 24-36 hrs
[4] = test system: CWR22R; test: Downregulation of AR-v7 level in human 22Rv1 cells at 0.5 to 10 uM measured after 36 hrs by Western blot analysis; format: functional, cell-based; settings: dose 0.5-10 µM
[5] = test system: CWR22R; test: Downregulation of DNMT1 gene expression in human 22Rv1 cells at 1 uM measured after 24 to 36 hrs by RNA sequencing analysis; format: functional, cell-based; settings: time 24-36 hrs
[6] = test system: CWR22R; test: Downregulation of AR-v7 level in human 22Rv1 cells at 0.5 to 10 uM by Western blot analysis; format: functional, cell-based; settings: dose 0.5-10 µM, time 24-36 hrs, TDE = time-dependent effect
[7] = test system: CWR22R; test: Downregulation of MYB gene expression in human 22Rv1 cells at 1 uM measured after 24 to 36 hrs by RNA sequencing analysis; format: functional, cell-based; settings: time 24-36 hrs
[8] = Kinetic solubility of the compound in phosphate buffer at pH 6.5 after 30 mins by nephelometry; format: physicochemical; settings: read-out: Kinetic_solubility
[9] = test system: CWR22R; test: Downregulation of CDC7 gene expression in human 22Rv1 cells at 1 uM measured after 24 to 36 hrs by RNA sequencing analysis; format: functional, cell-based; settings: time 24-36 hrs
[10] = MRT (0 to infinity) in rat at 5 mg/kg, iv measured upto 24 hrs by LC-MS/MS analysis; format: ADME, organism-based; settings: in vivo
[11] = test system: CWR22R; test: Downregulation of Androgen receptor level in human 22Rv1 cells at 0.5 to 10 uM measured after 36 hrs by Western blot analysis; format: functional, cell-based; settings: dose 0.5-10 µM
[12] = Partition coefficient, logD of the compound at pH 7.4 by HPLC analysis; format: physicochemical; settings: octanol/water
[13] = AUC (0 to t) in rat at 5 mg/kg, iv measured upto 24 hrs by LC-MS/MS analysis; format: ADME, organism-based; design: dose 5 mg/kg, time < 24 hrs, route iv; settings: in vivo
[14] = test system: CWR22R; test: Downregulation of GRB10 gene expression in human 22Rv1 cells at 1 uM measured after 24 to 36 hrs by RNA sequencing analysis; format: functional, cell-based; settings: time 24-36 hrs
[15] = target: T1, Papain (Carica papaya, UniProt P00784); test: Inhibition of papaya papain protease activity assessed as covalent binding mode of action at 10 uM incubated for 30 mins by absorbance based analysis; settings: 0.5 h
T1 sequence (P00784 whole entry): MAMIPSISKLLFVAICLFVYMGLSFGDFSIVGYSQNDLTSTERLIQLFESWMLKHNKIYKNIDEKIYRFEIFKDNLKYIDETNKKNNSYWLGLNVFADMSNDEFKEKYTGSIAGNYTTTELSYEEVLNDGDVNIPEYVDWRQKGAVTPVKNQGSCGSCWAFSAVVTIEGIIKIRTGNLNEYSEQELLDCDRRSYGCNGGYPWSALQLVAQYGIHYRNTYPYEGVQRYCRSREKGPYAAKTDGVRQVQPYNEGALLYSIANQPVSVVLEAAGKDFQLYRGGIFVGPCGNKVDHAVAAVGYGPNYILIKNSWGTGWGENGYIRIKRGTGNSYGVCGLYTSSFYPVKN

[16] = test system: CWR22R; test: Downregulation of androgen receptor in human 22Rv1 cells at 0.5 to 10 uM by Western blot analysis; format: functional, cell-based; settings: dose 0.5-10 µM, time 24-36 hrs, TDE = time-dependent effect
[17] = Elimination rate constant in rat at 5 mg/kg, iv measured upto 24 hrs by LC-MS/MS analysis; format: ADME, organism-based; settings: in vivo
[18] = Antiproliferative activity against Ar-luc mouse Adipose stromal cell measured after 3 days by celltiter-glo luminescence assay; format: toxicity, cell-based; settings: Ar-luc mouse adipose stromal cells
[19] = test system: CWR22R; test: Downregulation of CDC25A gene expression in human 22Rv1 cells at 1 uM measured after 24 to 36 hrs by RNA sequencing analysis; format: functional, cell-based; settings: time 24-36 hrs
[20] = test system: CWR22R; test: Downregulation of RAD51D gene expression in human 22Rv1 cells at 1 uM measured after 24 to 36 hrs by RNA sequencing analysis; format: functional, cell-based; settings: time 24-36 hrs
[21] = Half life in rat at 5 mg/kg, iv measured upto 24 hrs by LC-MS/MS analysis; format: ADME, organism-based; settings: in vivo
[22] = Clearance in rat at 5 mg/kg, iv measured upto 24 hrs by LC-MS/MS analysis; format: ADME, organism-based; settings: in vivo
[23] = Metabolic stability in mouse liver microsomes assessed as half life incubated for 60 mins in presence of NADPH-regenerating system; format: ADME, Microsome; settings: liver microsomes
[24] = test system: CWR22R; test: Downregulation of AR-v7 level in human 22Rv1 cells measured for 24 to 36 hrs by Western blot analysis; format: functional, cell-based; settings: dose 0.5-10 µM, time 24-36 hrs
[25] = Kinetic solubility of the compound in 0.01 M HCl at pH 2 after 30 mins by nephelometry; format: physicochemical; settings: read-out: Kinetic_solubility
[26] = test system: CWR22R; test: Downregulation of GINS1 gene expression in human 22Rv1 cells at 1 uM measured after 24 to 36 hrs by RNA sequencing analysis; format: functional, cell-based; settings: time 24-36 hrs
[27] = test system: CWR22R; test: Downregulation of CHEK1 gene expression in human 22Rv1 cells at 1 uM measured after 24 to 36 hrs by RNA sequencing analysis; format: functional, cell-based; settings: time 24-36 hrs
[28] = test system: CWR22R; test: Downregulation of MTBP gene expression in human 22Rv1 cells at 1 uM measured after 24 to 36 hrs by RNA sequencing analysis; format: functional, cell-based; settings: time 24-36 hrs
[29] = test system: CWR22R; test: Downregulation of POLE2 gene expression in human 22Rv1 cells at 1 uM measured after 24 to 36 hrs by RNA sequencing analysis; format: functional, cell-based; settings: time 24-36 hrs
[30] = test system: CWR22R; test: Downregulation of SKP2 gene expression in human 22Rv1 cells at 1 uM measured after 24 to 36 hrs by RNA sequencing analysis; format: functional, cell-based; settings: time 24-36 hrs
[31] = test system: CWR22R; test: Antitumor activity against human 22Rv1 cells xenografted in NOD-SCID mouse assessed as inhibition of tumor growth at 10 mg/kg/day, ip measured upto 20 days; format: functional, organism-based; settings: time <= 20.0 day
[32] = test system: CWR22R; test: Downregulation of RRM2 gene expression in human 22Rv1 cells at 1 uM measured after 24 to 36 hrs by RNA sequencing analysis; format: functional, cell-based; settings: time 24-36 hrs
[33] = MRT (0 to t) in rat at 5 mg/kg, iv measured upto 24 hrs by LC-MS/MS analysis; format: ADME, organism-based; settings: in vivo
[34] = test system: CWR22R; test: Downregulation of PCNA gene expression in human 22Rv1 cells at 1 uM measured after 24 to 36 hrs by RNA sequencing analysis; format: functional, cell-based; settings: time 24-36 hrs
[35] = test system: PC-3; test: Antiproliferative activity against human PC-3 cells measured after 3 days by celltiter-glo luminescence assay; format: functional, cell-based; settings: PC-3, 72 h
[36] = Toxicity in NOD-SCID mouse assessed as effect on body weight loss at 10 mg/kg/day, ip measured upto 20 days; format: organism-based; settings: in vivo, 480 h, time < 20 day
[37] = C0 in rat at 5 mg/kg, iv measured upto 24 hrs by LC-MS/MS analysis; format: ADME, organism-based; settings: in vivo
[38] = test system: CWR22R; test: Downregulation of FEN1 gene expression in human 22Rv1 cells at 1 uM measured after 24 to 36 hrs by RNA sequencing analysis; format: functional, cell-based; settings: time 24-36 hrs
[39] = test system: CWR22R; test: Downregulation of UHRF1 gene expression in human 22Rv1 cells at 1 uM measured after 24 to 36 hrs by RNA sequencing analysis; format: functional, cell-based; settings: time 24-36 hrs

Clc1ccc(COn2nnnc2-c2ccc(Cl)cc2)cc1
Vd [1]: 1.53 L/kg
microsomal CLint [2]: 21 µL/min/mg
Activity [3]: Active
Activity [4]: Active
Activity [5]: Active
Activity [6]: Tde
Activity [7]: Active
solubility kinetic at 0.5 h [8]: < 1.6 µg/mL
Activity [9]: Active
MRT inf [10]: 20.2 min
Activity [11]: Active
logD [12]: 4.5
AUC(0-t) at 24 h [13]: 1080 ng·h/mL
Activity [14]: Active
inhibition (INH) [15]: Not Active
Activity [16]: Tde
k el at 24 h [17]: 0.000292 s⁻¹
IC50 at 3 days [18]: > 100 µM
Activity [19]: Active
Activity [20]: Active
half-life [21]: 55.1 min
clearance [22]: 75.9 mL/min/kg
half-life [23]: 21 min
Activity [24]: Dose-Dependent Effect
solubility kinetic at 0.5 h [25]: < 1.6 µg/mL
Activity [26]: Active
Activity [27]: Active
Activity [28]: Active
Activity [29]: Active
Activity [30]: Active
Activity [31]: Active
Activity [32]: Active
MRT last at 24 h [33]: 16.3 min
Activity [34]: Active
IC50 [35]: > 100 µM
Activity [36]: Non-Toxic
C0 at 24 h [37]: 5480 ng/mL
Activity [38]: Active
Activity [39]: Active
